From the NIST ThermoML archive (doi:10.1021/je101361u)
Numbers after ± are expanded uncertainties.

Conditions: 101.33 kPa, Liquid

COCCOCCOC [2,5,8-trioxanonane]
Conditions | mass density [kg/m3]
283.15 K | 953.66 ± 0.38
284.15 K | 952.67 ± 0.38
285.15 K | 951.69 ± 0.38
286.15 K | 950.7 ± 0.38
287.15 K | 949.71 ± 0.38
288.15 K | 948.72 ± 0.38
289.15 K | 947.73 ± 0.39
290.15 K | 946.74 ± 0.39
291.15 K | 945.75 ± 0.39
292.15 K | 944.76 ± 0.39
293.15 K | 943.76 ± 0.39
294.15 K | 942.79 ± 0.39
295.15 K | 941.79 ± 0.39
296.15 K | 940.79 ± 0.39
297.15 K | 939.8 ± 0.4
298.15 K | 938.8 ± 0.4
299.15 K | 937.8 ± 0.4
300.15 K | 936.81 ± 0.4
301.15 K | 935.81 ± 0.4
302.15 K | 934.82 ± 0.4
303.15 K | 933.82 ± 0.4
304.15 K | 932.82 ± 0.4
305.15 K | 931.82 ± 0.4
306.15 K | 930.82 ± 0.41
307.15 K | 929.83 ± 0.41
308.15 K | 928.83 ± 0.41
309.15 K | 927.82 ± 0.41
310.15 K | 926.83 ± 0.41
311.15 K | 925.82 ± 0.41
312.15 K | 924.82 ± 0.41
313.15 K | 923.82 ± 0.41
314.15 K | 922.81 ± 0.42
315.15 K | 921.81 ± 0.42
316.15 K | 920.8 ± 0.42
317.15 K | 919.8 ± 0.42
318.15 K | 918.79 ± 0.42
319.15 K | 917.78 ± 0.42
320.15 K | 916.78 ± 0.42
321.15 K | 915.77 ± 0.42
322.15 K | 914.75 ± 0.43
323.15 K | 913.75 ± 0.43
324.15 K | 912.73 ± 0.43
325.15 K | 911.72 ± 0.43
326.15 K | 910.7 ± 0.43
327.15 K | 909.69 ± 0.43
328.15 K | 908.67 ± 0.43
329.15 K | 907.65 ± 0.44
330.15 K | 906.63 ± 0.44
331.15 K | 905.62 ± 0.44
332.15 K | 904.6 ± 0.44
333.15 K | 903.59 ± 0.44

CCOCCOCCOCC [diethylene glycol diethyl ether]
Conditions | mass density [kg/m3]
283.15 K | 916.36 ± 1.1
284.15 K | 915.39 ± 1.1
285.15 K | 914.43 ± 1.1
286.15 K | 913.46 ± 1.1
287.15 K | 912.5 ± 1.1
288.15 K | 911.53 ± 1.1
289.15 K | 910.57 ± 1.1
290.15 K | 909.6 ± 1.1
291.15 K | 908.63 ± 1.1
292.15 K | 907.67 ± 1.1
293.15 K | 906.71 ± 1.1
294.15 K | 905.75 ± 1.1
295.15 K | 904.78 ± 1.1
296.15 K | 903.81 ± 1.1
297.15 K | 902.85 ± 1.1
298.15 K | 901.88 ± 1.1
299.15 K | 900.92 ± 1.1
300.15 K | 899.95 ± 1.1
301.15 K | 898.98 ± 1.1
302.15 K | 898.02 ± 1.1
303.15 K | 897.05 ± 1.1
304.15 K | 896.08 ± 1.1
305.15 K | 895.12 ± 1.1
306.15 K | 894.15 ± 1.1
307.15 K | 893.18 ± 1.1
308.15 K | 892.21 ± 1.1
309.15 K | 891.25 ± 1.1
310.15 K | 890.28 ± 1.1
311.15 K | 889.31 ± 1.1
312.15 K | 888.34 ± 1.1
313.15 K | 887.37 ± 1.1
314.15 K | 886.4 ± 1.1
315.15 K | 885.43 ± 1.1
316.15 K | 884.46 ± 1.1
317.15 K | 883.48 ± 1.1
318.15 K | 882.51 ± 1.1
319.15 K | 881.54 ± 1.1
320.15 K | 880.57 ± 1.1
321.15 K | 879.6 ± 1.1
322.15 K | 878.63 ± 1.1
323.15 K | 877.66 ± 1.1
324.15 K | 876.7 ± 1.1
325.15 K | 875.73 ± 1.1
326.15 K | 874.75 ± 1.1
327.15 K | 873.78 ± 1.1
328.15 K | 872.81 ± 1.1
329.15 K | 871.84 ± 1.1
330.15 K | 870.87 ± 1.1
331.15 K | 869.89 ± 1.1
332.15 K | 868.92 ± 1.1
333.15 K | 867.94 ± 1.1
